Values quoted from earlier work as cited in patent US6465497B2, “Arylthiazolidinedione derivatives” (Merck & Co., Inc., priority 1999, dated 2002).

Columns and labels:
[1] = system: ob/ob mice; conditions: Cantello et al, J. Med. Chem. 1994
[2] = target: T1, PPARγ (Homo sapiens, UniProt P37231); conditions: subsequent studies; Willson et al, J. Med. Chem. 1996
T1 sequence (P37231 1-505): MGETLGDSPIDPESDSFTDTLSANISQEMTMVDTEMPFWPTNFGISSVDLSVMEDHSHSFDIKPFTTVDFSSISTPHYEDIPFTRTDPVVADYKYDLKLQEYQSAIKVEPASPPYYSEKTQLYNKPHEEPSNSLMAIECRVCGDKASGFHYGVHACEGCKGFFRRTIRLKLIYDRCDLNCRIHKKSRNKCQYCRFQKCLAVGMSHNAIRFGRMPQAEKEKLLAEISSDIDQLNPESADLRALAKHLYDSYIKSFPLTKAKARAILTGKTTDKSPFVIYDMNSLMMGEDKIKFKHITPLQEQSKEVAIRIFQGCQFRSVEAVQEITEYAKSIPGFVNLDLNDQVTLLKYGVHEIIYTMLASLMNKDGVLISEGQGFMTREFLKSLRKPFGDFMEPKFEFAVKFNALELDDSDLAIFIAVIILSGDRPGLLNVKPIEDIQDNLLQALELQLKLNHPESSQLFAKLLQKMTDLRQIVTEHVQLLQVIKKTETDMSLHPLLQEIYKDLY

[3] = system: diabetic mouse model; conditions: Sohda et al, Chem. Pharm. Bull. 1982

Row | amounts required for PPARγ activation [2] | Compound | antihyperglycemic activity [1] | antihyperglycemic effect [3]
1 | relatively high amounts | CN(CCOc1ccc(C2SC(=O)NC2=O)cc1)c1nc2ccccc2o1 (stereo not drawn) [(1), 5-[4-[2-(2-benzoxazolylmethylamino)ethoxy]phenyl]-2,4-thiazolidinedione] | no antihyperglycemic activity | 
2 |  | O=C1NC(=O)C(c2ccc(OCCc3ccccc3)cc2)S1 (stereo not drawn) [(2), 5-[4-(phenylethoxy)phenyl]-2,4-thiazolidinedione] |  | no antihyperglycemic effect
